The supplement of paper PMC10307832

How the values were obtained:
Assay in all cases: relative viability (nuclei count vs DMSO), 5 days (fraction); higher = more cells survive
Bicalutamide + Dasatinib = compound: CC(O)(CS(=O)(=O)c1ccc(F)cc1)C(=O)Nc1ccc(C#N)c(C(F)(F)F)c1 [Bicalutamide] + Cc1nc(Nc2ncc(C(=O)Nc3c(C)cccc3Cl)s2)cc(N2CCN(CCO)CC2)n1 [Dasatinib] (partner 0.075 µM)
Summary of the method: (§1)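 Relative viability equals treated-well nuclei counts divided by vehicle-well nuclei counts. Counts came from 4× images of lung cancer cell lines grown in 1536-well plates for 5 days after pin-tool dosing on the day after seeding. Dosing used one drug alone or a fixed anchor-drug dose plus five library-drug doses (not always all listed) in √10 steps, and values are medians of duplicate plates.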

[1] = compound: C(C(=O)C(=O)O)Br [Bromopyruvate] + CS(=O)(=O)CCNCc1ccc(-c2ccc3ncnc(Nc4ccc(OCc5cccc(F)c5)c(Cl)c4)c3c2)o1 [Lapatinib] (partner 2 µM)
Summary of the method: as §1

[2] = compound: CC(O)(CS(=O)(=O)c1ccc(F)cc1)C(=O)Nc1ccc(C#N)c(C(F)(F)F)c1 [Bicalutamide] + CCNC(=O)c1noc(-c2cc(C(C)C)c(O)cc2O)c1-c1ccc(CN2CCOCC2)cc1 [Luminespib] (partner 0.01 µM)
Summary of the method: as §1

[3] = compound: C(C(=O)C(=O)O)Br [Bromopyruvate] + CC1(C)CCC(c2ccc(Cl)cc2)=C(CN2CCN(c3ccc(C(=O)NS(=O)(=O)c4ccc(N[C@H](CCN5CCOCC5)CSc5ccccc5)c(S(=O)(=O)C(F)(F)F)c4)cc3)CC2)C1 [Navitoclax] (partner 0.5 µM)
Summary of the method: as §1

Cell Line	relative viability (Bicalutamide + Dasatinib; first compound 0.08 µM)	relative viability (Bicalutamide + Dasatinib; first compound 0.253 µM)	relative viability (Bicalutamide + Dasatinib; first compound 0.8 µM)	relative viability (Bicalutamide + Dasatinib; first compound 2.53 µM)	relative viability ([1]; first compound 1 µM)	relative viability ([1]; first compound 3.162 µM)	relative viability ([1]; first compound 10 µM)	relative viability ([1]; first compound 31.62 µM)	relative viability ([1]; first compound 100 µM)	relative viability ([2]; first compound 0.08 µM)	relative viability ([2]; first compound 0.253 µM)	relative viability ([2]; first compound 0.8 µM)	relative viability ([2]; first compound 2.53 µM)	relative viability ([3]; first compound 1 µM)	relative viability ([3]; first compound 3.162 µM)	relative viability ([3]; first compound 10 µM)	relative viability ([3]; first compound 31.62 µM)	relative viability ([3]; first compound 100 µM)
NCI-H1975	0.396	0.376	0.462	0.334	0.876	1.08	1.01	0.838	0.833	0.294	0.23	0.33	0.177	1.18	1.26	1.08	1.31	0.994
CAL-12T	0.492	0.325	0.445	0.256	0.669	0.698	0.794	0.748	0.902	0.707	0.38	0.712	0.454	1.06	1.23	1.34	1.34	1.08
NCI-H1623	–	0.524	0.562	0.54	–	–	–	–	–	–	0.647	0.596	0.459	–	–	–	–	–
HCC-44	–	–	–	–	0.959	1.02	1.11	1.1	1.02	0.907	0.97	1.44	1.15	0.907	0.967	1.08	0.96	1.04
EKVX	0.619	0.491	0.662	0.66	0.218	0.213	0.343	0.207	0.211	0.94	0.871	0.964	0.892	0.887	0.995	1.06	0.95	1.07
NCI-H1651	0.449	0.322	0.471	0.451	0.858	0.909	0.905	0.764	0.829	0.767	0.67	0.918	0.874	1.04	0.97	1.07	0.96	1.2
NCI-H1944	0.233	0.203	0.216	0.208	0.826	0.903	0.932	0.7	0.869	0.759	0.66	0.845	0.779	1.08	1.15	1.02	1.01	1.05
NCI-H1703	–	–	–	–	1.14	1.35	1.39	1.15	1.22	–	–	–	–	1.06	1.22	1.42	1.34	1.16
Calu-6	–	–	–	–	1.04	1.15	1.08	1.06	0.856	–	–	–	–	0.939	0.922	0.779	0.792	0.74
EBC-1	–	–	–	–	0.225	0.21	0.226	0.205	0.221	–	–	–	–	0.448	0.528	0.433	0.453	0.358
A-427	0.643	0.631	0.791	0.607	1.08	1.03	1.01	1.03	1.04	1.02	0.761	1	0.763	0.967	0.876	0.895	1.02	1.04
NCI-H2405	0.23	0.199	0.235	0.154	1.13	1.12	1.13	0.965	1.14	0.669	0.661	0.826	0.627	0.903	0.94	0.971	0.774	1.15
NCI-H1355	0.753	0.639	0.797	0.729	0.978	0.986	1.06	0.995	0.965	0.797	0.694	0.787	0.818	0.936	0.982	1	0.901	0.91
NCI-H358	0.154	0.14	0.16	0.145	0.435	0.449	0.482	0.483	0.451	0.488	0.295	0.582	0.32	–	–	–	–	–
RERF-LC-KJ	0.91	0.814	1.04	0.694	0.874	0.892	0.984	0.868	0.829	1.24	1.2	1.36	1.2	1.05	0.822	1.05	0.868	0.98
NCI-H23	0.789	0.67	1.07	0.802	1.05	1.04	1.16	1.06	1.04	0.223	0.195	0.171	0.212	0.855	0.807	0.983	0.768	0.77
HOP-62	0.663	0.646	0.815	0.516	1.04	1.02	–	1.02	1.02	0.917	1.01	1.09	0.885	1.05	0.961	1.12	1.08	0.899
HARA	0.273	0.248	0.314	0.265	0.825	0.829	0.707	0.9	0.844	0.987	0.721	0.678	0.847	1.12	1.16	1.13	1.17	1.14
PC-14	0.263	0.223	0.264	0.18	0.317	0.317	0.361	0.276	0.325	0.16	0.148	0.198	0.137	1.02	1.02	1.07	1.02	1.01

Cell Line	relative viability (Bicalutamide + Dasatinib; first compound 0.08 µM)	relative viability (Bicalutamide + Dasatinib; first compound 0.253 µM)	relative viability (Bicalutamide + Dasatinib; first compound 0.8 µM)	relative viability (Bicalutamide + Dasatinib; first compound 2.53 µM)	relative viability ([1]; first compound 1 µM)	relative viability ([1]; first compound 3.162 µM)	relative viability ([1]; first compound 10 µM)	relative viability ([1]; first compound 31.62 µM)	relative viability ([1]; first compound 100 µM)	relative viability ([2]; first compound 0.08 µM)	relative viability ([2]; first compound 0.253 µM)	relative viability ([2]; first compound 0.8 µM)	relative viability ([2]; first compound 2.53 µM)	relative viability ([3]; first compound 1 µM)	relative viability ([3]; first compound 3.162 µM)	relative viability ([3]; first compound 10 µM)	relative viability ([3]; first compound 31.62 µM)	relative viability ([3]; first compound 100 µM)
NCI-H1755	0.397	0.382	0.446	0.351	0.988	1.02	1.02	1.07	1.19	0.475	0.58	0.435	0.292	1.06	1.02	0.977	1.03	1.03
HCC-78	0.363	0.297	0.483	0.375	1.04	0.893	0.702	1.03	0.591	–	–	–	–	0.386	0.759	0.977	0.893	0.886
IA-LM	–	–	–	–	0.772	0.86	0.527	0.816	0.617	–	–	–	–	0.798	0.723	0.654	0.763	0.818
NCI-H441	0.646	0.63	0.664	0.534	–	–	–	–	–	0.291	0.377	0.356	0.411	0.539	0.441	0.557	0.439	0.493
NCI-H322M	0.236	0.248	0.264	0.319	0.573	0.548	0.485	0.624	0.612	0.872	0.891	1.03	1.06	1.23	1.2	1.22	1.16	1.3
NCI-H1993	0.576	0.461	0.711	0.582	0.698	0.763	0.705	0.847	0.769	0.835	0.894	1.07	0.999	1.02	0.96	0.925	1.09	0.901
NCI-H661	0.95	0.844	1.03	0.722	0.52	0.475	0.623	0.526	0.559	0.938	0.94	0.928	0.954	–	–	–	–	–
NCI-H650	0.483	0.42	0.456	0.356	1.12	1.16	0.966	0.885	0.769	0.822	0.793	0.947	0.792	–	–	–	–	–
ChaGo-K-1	0.613	0.557	0.561	0.542	–	–	–	–	–	0.704	0.717	0.513	0.622	1.17	0.99	0.963	0.96	0.879
NCI-H522	0.815	0.722	0.901	0.87	–	–	–	–	–	1.07	1.14	1.45	1.17	–	–	–	–	–
NCI-H1299	–	–	–	–	0.952	0.991	0.973	0.961	0.958	–	–	–	–	1.04	1.07	1.03	1.03	1.02
NCI-H2342	0.324	0.276	0.299	0.306	–	–	–	–	–	0.682	0.752	0.746	0.729	–	–	–	–	–
SW 900	0.856	0.445	0.658	0.509	–	–	–	–	–	0.175	0.153	0.172	0.17	–	–	–	–	–
HCC-366	0.556	0.481	0.749	0.5	1.03	1.02	1.24	1.01	1.05	–	–	–	–	1.04	1.05	1.14	1.04	1.03
A549	–	–	–	–	1.03	1.05	1.14	1.08	1	–	–	–	–	1.23	1.22	1.36	1.22	1.33
NCI-H1563	0.449	0.456	0.512	0.409	0.88	1.1	0.902	0.888	0.938	0.529	0.552	0.567	0.515	–	–	–	–	–
ABC-1	0.658	0.476	0.725	0.475	1.34	1.24	1.36	1.13	1.18	0.558	0.296	0.749	0.596	–	–	–	–	–
LCLC-103H	0.401	0.428	0.52	0.425	–	–	–	–	–	1.02	0.906	1.04	0.928	–	–	–	–	–
